Columns and labels:
FIV PR = molecular target: T1, FIV PR (Feline immunodeficiency virus, UniProt P16088, C122K/G43I/N93T); test: Inhibition of FIV PR (Ki, IC50); type: biochemical
T1 construct: made in house; host or cells: E. coli BL21(DE3)
Description: The solution was mixed and incubated for 10 minutes at 37° C. and the reaction quenched by addition of 8M guanidine HCl solution containing 0.2 M sodium acetate at pH 4.2 (100 μL). The cleavage products and substrate were separated by reverse phase HPLC. Absorbance was measured at 215 nm, peak areas were determined and percent conversion to product was calculated using relative peak areas. […] IC50 was determined as the inhibitor concentration at 50% inhibition. […] ([S]=substrate concentration in nmol). The data used was generated similarly to that for Ki with the following modifications. The substrate concentrations used were 560, 448, 336, 224, 111 and 56 μM, in the absence of inhibitor.
Kinetic determinations for both HIV PR and FIV PRs were performed at 37° C. at pH 5.25 in duplicate using F-2000 fluorescence spectrophotometer (Hitachi).
For FIV PRs, the kinetic data were determined under the similar reaction conditions as for HIV PR.

82F/84V mutant = test: Cell culture IC90, 82F/84V mutant; type: cell-based, HIV; details: Human immunodeficiency virus 1, read-out: IC90 against the 82F/84V mutant
wild type HIV PR = test: Cell culture IC90, wild type; type: cell-based; details: Human immunodeficiency virus 1, read-out: IC90 against the wild type HIV PR
[1] = system: FIV-PPR in feline T-cells (104-C1); test: Ex vivo inhibitor analysis against FIV, pelletable reverse transcriptase in culture supernatant; type: cell-based, feline immunodeficiency virus; details: for FIV replication, pelletable reverse transcriptase: feline T-cells, 1 month
Description: For FIV, the assays were performed in FIV-infected feline T-cells which were cultured in the presence of compound 1200 at different concentrations over the course of 1 month. Each data in FIG. 14 represents the amount of pelletable FIV reverse transcriptase in the culture supernatant. […] After one month, the drug-treated cultures were split and replated with and without compound 1200.
The lymphocytic cell line 104-C1 (provided by C. Grant) was used as the target for infection. Cells were cultured in RPMI-1640 media supplemented with 10% FBS, 200 μM L-Glutamine, 1×MEM-Vitamins, 100 μM Sodium Pyruvate, 1×Non-Essential Amino Acids, 5.5×10−5M b-ME, 50 μg/ml Gentamicin, 50 U/ml human recombinant Interleukin-2 (provided by Hoffmann-LaRoche) and 7.5 μg/ml Concanavalin-A. For inhibitor assessment, 5×10^6 cells were infected with FIV-PPR (4×105 RT units) in 1 mL culture for 2 hr at 37° C. […] The cells were then washed with Hanks-buffered saline solution (HBSS) and resuspended in 10 ml of complete medium. The compound 1200 (10 mg/mL in DMSO) was then added to final concentrations of 0.1, 0.5, 1, and 5 μg/ml in duplicate. The cells were then incubated at 37° C. The culture supernatants were monitored for the presence of pelletable reverse transcriptase activity at weekly intervals, as follows. Cell-free culture supernatants (4 ml) were centrifuged at 60K for 30 min and the pellets were resuspended in 100 μl of lysis buffer containing 40 mM TrisHCl (pH 8.1), 360 mM NaCl, 20 mM DTT and 0.2% NP40. Twenty five μl of lysate was added to 25 μl of a mixture containing polyrA-pdT (Pharmacia, Piscataway, N.J.), MgCl2, and 3H-labeled deoxythymidine 5′-triphosphate (DuPont NEN, Boston, Mass.), and incubated for 1 hr at 37° C. The mixture was spotted on DE81 paper, air-dried, fixed in 0.1 M sodium pyrophosphate, washed three times in 0.3 M ammonium formate, and an additional time in 95% ethanol. The paper was then dried and counted on a scintillation counter.
Cells were split 1:5 after the second, third, and fourth time points and fresh inhibitor was added at the appropriate concentration at each of these intervals. The data were expressed as values +/−standard deviation of the mean.

[2] = system: SIVmac251 in 174×CEM cells; test: Ex vivo inhibitor analysis against SIV, p27 antigen ELISA; type: cell-based
Description: The results from tissue culture assays against SIV (FIG. 14) and HIV (FIG. 14) were equally encouraging. […] The effectiveness of compound 1200 against HIV was measured by determining the percentage of viable cells remaining in culture over time in the presence and absence of drug (FIG. 14). In the control, HIV caused formation of multinucleated syncytia and 100% cell death by 9 days post infection. However, the cells cultured with 1 μg/ml (1.1 μM) or 5 μg/ml (5.5 μM) of inhibitor 1200 remained 100% viable after 1 month, identical to results obtained in the absence of virus infection. To test for virus in these cultures, supernatants were removed and added to 1×10^5 uninfected MT-2 cells after a 1:5 dilution with fresh CM. […] In contrast, when 2×10^5 infected MT-2 cells that had been treated with compound 1200 for two weeks were removed and replated in fresh medium with or without compound 1200 only MT-2 cells cultured in the absence of compound 1200 were dead within 4 days (data not shown). […] Cultures are being carried continuously in the presence of compound 12 to look for resistance development. Tests are also underway to determine the level of efficacy of the compound against a defined panel of drug-resistant HIVs. […]

CC(C)[C@H](NC(=O)[C@H](C)NC(=O)OCc1ccccc1)C(=O)N[C@@H](Cc1ccccc1)[C@@H](O)[C@H](O)[C@H](Cc1ccccc1)NC(=O)[C@@H](NC(=O)[C@H](C)NC(=O)OCc1ccccc1)C(C)C [Compound 1b]
Ki (FIV PR): 41 nM | IC90 (82F/84V mutant): 900 nM | IC90 (wild type HIV PR): 100 nM | prevention of FIV infection in tissue culture (in words) [1]: strongly inhibits | FIV replication, pelletable reverse transcriptase ([1]; 1.0 μg/ml (1.1 μM)): most effective | virus after drug-treated cultures were split and replated with and without drug ([1]; after one month of treatment, two weeks in culture): No virus was detected | resistance development against the drug ([1]; eight weeks of continuous culture): No sign of resistance development | FIV replication, pelletable reverse transcriptase [1]: markedly inhibit | inhibition of SIV infection in tissue culture (in words) [2]: strongly inhibits | SIV virus expression, p27 antigen in culture supernatant ([2]; 1 μg/ml): near background

From patent publication US6803466B1, “HIV/FIV protease inhibitors having a small P3 residue” (The Scripps Research Institute, priority 1997, dated 2004)
